target: T1, cathepsin K (Homo sapiens, UniProt P43235); assay: Cathepsin K inhibitory activity (fluorescent substrate Z-Leu-Arg-MCA); format: biochemical; settings: enzyme expressed in HEK293T; 15 min preincubation, 30 min reaction at room temperature, pH 5.5; read-out: Activity Intensity (cathepsin K inhibitory activity, pIC50 class) (converted)
T1 construct: the active enzyme was obtained as the enzyme fraction by using detergent containing lysis buffer; made in house; host or cells: HEK293T (GenHunter Corporation), transient expression; detergent lysate used as enzyme fraction
T1 sequence (P43235 115-329): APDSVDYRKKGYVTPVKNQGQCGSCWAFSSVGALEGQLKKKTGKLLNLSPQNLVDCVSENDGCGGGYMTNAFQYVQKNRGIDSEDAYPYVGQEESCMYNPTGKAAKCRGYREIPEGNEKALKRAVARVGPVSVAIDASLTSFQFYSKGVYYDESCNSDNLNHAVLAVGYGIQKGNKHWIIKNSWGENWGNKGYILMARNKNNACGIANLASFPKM
Method: Cathepsin K inhibitory activities of the compounds synthesized according to the methods of the above examples were measured.
Cathepsin K used for evaluation of inhibitory activity was transiently expressed in an animal cell HEK293T (made by GenHunter Corporation) and the active enzyme was obtained as the enzyme fraction by using detergent containing lysis buffer.
The enzyme solution A was prepared at 2.1 times final concentration by diluting the enzyme fraction with assay buffer (50 mM sodium acetate, 50 mM sodium chloride, 2 mM DTT, pH 5.5). The test compound solutions B were prepared at 50 times final target concentrations by dimethylsulfoxide (DMSO). As a substrate solution C, a solution of a fluorescent substrate, benzyloxycarbonyl-L-leucyl-L-arginyl-4-methyl-coumaryl-7-amide (Z-Leu-Arg-MCA (Peptide Institute Inc.), was prepared at 10 μM by an assay buffer.
To the enzyme solution A (38.4 μL) were added the test compound solutions B (1.6 μL) and mixed individually. The mixtures were incubated at room temperature for 15 minutes. To the incubated solutions were added the substrate solution C (40 μL) and the mixtures were reacted at room temperature for 30 minutes respectively. The fluorescence intensities of the enzyme reaction solutions were measured at excitation wavelength of 355 nm and measurement wavelength of 460 nm and the enzyme activities were calculated from these fluorescence intensities caused by 7-amino-4-methylcoumarine released. The enzyme activity with using DMSO instead of the test compound solution B was taken as 100% and the inhibitory rates at each concentration of the test compound were calculated. The […] response curve was fitted to the plots. The 50% inhibitory concentration against cathepsin K was calculated from this curve.
Note that the symbols (+, ++, and +++) in this table represent the inhibitory activity values as below. Here, pIC50 is the value representing a negative logarithm of IC50, (−log10(IC50)). IC50 is a 50% inhibitory concentration.

SMILES | IC50
CC[C@@H](CNc1ccc(OC)cc1OC)NC(=O)C1(NC(c2ccccc2)C(F)(F)F)CCCCC1 (stereo partly drawn) [Compound 8, N-((1S)-1-{[(2,4-dimethoxyphenyl)amino]methyl}propyl){[(2,2,2-trifluoro-1-phenylethyl)amino]cyclohexyl}carboxamide] | 3.16 to 31.6 nM
CC[C@@H](CNc1ccc(N2CCOCC2)cc1)NC(=O)[C@H](CC(C)(C)F)N[C@@H](c1ccc(-c2ccc(S(C)(=O)=O)cc2)cc1)C(F)(F)F [Compound 9, (2S)—N-((1S)-1-{[(4-morpholin-4-ylphenyl)amino]methyl}propyl)-2-[((1S)-2,2,2-trifluoro-1-{4-[4-(methylsulfonyl)phenyl]phenyl}ethyl)amino]-4-fluoro-4-methylpentanamide] | ≤ 3.16 nM
CC[C@@H](CNc1ccc(N2CCCCC2)cc1)NC(=O)[C@H](CC(C)(C)F)N[C@@H](c1ccc(-c2ccc(S(C)(=O)=O)cc2)cc1)C(F)(F)F [Compound 10, (2S)—N-((1S)-1-{[(4-piperidin-1-ylphenyl)amino]methyl}propyl)-2-[((1S)-2,2,2-trifluoro-1-{4-[4-(methylsulfonyl)phenyl]phenyl}ethyl)amino]-4-fluoro-4-methylpentanamide] | ≤ 3.16 nM
CC[C@@H](CNc1ccc(N2CCOCC2)cc1)NC(=O)C1(NC(c2ccccc2)C(F)(F)F)CCCCC1 (stereo partly drawn) [Compound 11, N-((1S)-1-{[(4-morpholin-1-ylphenyl)amino]methyl}propyl) {[(2,2,2-trifluoro-1-phenylethyl)amino]cyclohexyl}carboxamide] | 3.16 to 31.6 nM
CC[C@@H](CNc1ccc(N(C)C)cc1)NC(=O)[C@H](CC(C)(C)F)N[C@@H](c1ccc(-c2ccc(S(C)(=O)=O)cc2)cc1)C(F)(F)F [Compound 12] | ≤ 3.16 nM
CC[C@@H](CNc1ccc(N(C)C)cc1)NC(=O)C1(NC(c2ccccc2)C(F)(F)F)CCCCC1 (some centres unmarked) [Compound 14] | 31.6 to 10000 nM
CC[C@@H](CNc1ccc(N2CCSCC2)cc1)NC(=O)[C@H](CC(C)(C)F)N[C@@H](c1ccc(Br)cc1)C(F)(F)F [Compound 18] | ≤ 3.16 nM
CC[C@@H](CNc1ccc(N2CCOCC2)cc1)NC(=O)[C@H](CC(C)C)N[C@@H](c1ccc(S(C)(=O)=O)cc1)C(F)(F)F [Compound 24] | ≤ 3.16 nM
CC[C@@H](CNc1ccc(OC)cc1OC)NC(=O)[C@H](CC(C)C)N[C@@H](c1ccc(OC)nc1)C(F)(F)F [Compound 25] | 3.16 to 31.6 nM
CC[C@@H](CNc1ccc(N2CCOCC2)cc1)NC(=O)[C@H](CC(C)C)N[C@@H](c1ccc(OC)nc1)C(F)(F)F [Compound 26] | ≤ 3.16 nM
CC[C@@H](CNc1ccc(N2CCOCC2)cc1)NC(=O)[C@H](CC(C)C)N[C@@H](c1cccnc1)C(F)(F)F [Compound 27] | ≤ 3.16 nM
CC[C@@H](CNc1ccc(OC)cc1OC)NC(=O)C1(N[C@@H](c2ccccc2)C(F)(F)F)CCCC1 [Compound 28] | 31.6 to 10000 nM
CC[C@@H](CNc1ccc(N2CCOCC2)cc1)NC(=O)[C@H](CC(C)C)N[C@@H](c1ccc2c(c1)OCO2)C(F)(F)F [Compound 29] | ≤ 3.16 nM
CC[C@@H](CNc1ccc(N2CCOCC2)cc1)NC(=O)[C@H](CC(C)C)N[C@@H](c1ccc(OCCOC)cc1)C(F)(F)F [Compound 30] | ≤ 3.16 nM
CC[C@@H](CNc1ccc(N2CCOCC2)cc1)NC(=O)[C@H](CC(C)C)N[C@@H](c1ccccn1)C(F)(F)F [Compound 32] | ≤ 3.16 nM
CC[C@@H](CNc1ccc(N2CCOCC2)cc1)NC(=O)[C@H](CC(C)C)N[C@@H](c1ccc(OC(F)F)cc1)C(F)(F)F [Compound 33] | ≤ 3.16 nM
CC[C@@H](CNc1ccc(N2CCOCC2)cc1)NC(=O)[C@H](CC(C)C)N[C@@H](c1ccc(Cl)cc1)C(F)(F)F [Compound 34] | ≤ 3.16 nM
CC[C@@H](CNc1ccc(N2CCOCC2)cc1)NC(=O)[C@H](CC(C)C)N[C@@H](c1ccc(N(C)C)cc1)C(F)(F)F [Compound 35] | ≤ 3.16 nM
CC[C@@H](CNc1ccc(N2CCOCC2)cc1)NC(=O)[C@H](CC(C)C)N[C@@H](Cc1ccccc1)C(F)(F)F [Compound 37] | ≤ 3.16 nM
CC[C@@H](CNc1ccc(OCCS(C)(=O)=O)cc1OC)NC(=O)[C@H](CC(C)C)N[C@@H](c1ccc(OC)nc1)C(F)(F)F [Compound 38] | 3.16 to 31.6 nM
CC[C@@H](CNc1ccc(OCCS(C)(=O)=O)cc1OC)NC(=O)[C@H](CC(C)C)N[C@@H](c1cccnc1)C(F)(F)F [Compound 39] | 3.16 to 31.6 nM

Further lines, results first:

IC50 | SMILES
3.16 to 31.6 nM | CC[C@@H](CNc1ccc(OC)cc1)NC(=O)[C@H](CC(C)(C)F)N[C@@H](c1ccc(-c2ccc(S(C)(=O)=O)cc2)cc1)C(F)(F)F [Compound 1, (2S)—N-((1S)-1-{[(4-methoxyphenyl)amino]methyl}propyl)-2-[((1S)-2,2,2-trifluoro-1-{4-[4-(methylsulfonyl)phenyl]phenyl}ethyl)amino]-4-fluoro-4-methylpentanamide]
31.6 to 10000 nM | COc1ccc(NC[C@H](COCc2ccccc2)NC(=O)[C@H](CC(C)(C)F)N[C@@H](c2ccc(-c3ccc(S(C)(=O)=O)cc3)cc2)C(F)(F)F)cc1 [Compound 2, N-{(1R)-2-[(4-methoxyphenyl)amino]-1-[(phenylmethoxy)methyl]ethyl}(2S)-2-[((1S)-2,2,2-trifluoro-1-{4-[4-(methylsulfonyl)phenyl]phenyl}ethyl)amino]-4-fluoro-4-methylpentanamide]
3.16 to 31.6 nM | COc1ccc(NC[C@H](CO)NC(=O)[C@H](CC(C)(C)F)N[C@@H](c2ccc(-c3ccc(S(C)(=O)=O)cc3)cc2)C(F)(F)F)cc1 [Compound 3, N-((1R)-2-hydroxy-1-{[(4-methoxyphenyl)amino]methyl}ethyl)(2S)-2-[((1S)-2,2,2-trifluoro-1-{4-[4-(methylsulfonyl)phenyl]phenyl}ethyl)amino]-4-fluoro-4-methylpentanamide]
≤ 3.16 nM | CCOc1ccc(NC[C@H](CC)NC(=O)[C@H](CC(C)(C)F)N[C@@H](c2ccc(-c3ccc(S(C)(=O)=O)cc3)cc2)C(F)(F)F)cc1OCC [Compound 4, (2S)—N-((1S)-1-{[(3,4-diethoxyphenyl)amino]methyl}propyl)-2-[((1S)-2,2,2-trifluoro-1-{4-[4-(methylsulfonyl)phenyl]phenyl}ethyl)amino]-4-fluoro-4-methylpentanamide]
≤ 3.16 nM | CC[C@@H](CNc1ccc(OC)cc1OC)NC(=O)[C@H](CC(C)(C)F)N[C@@H](c1ccc(Br)cc1)C(F)(F)F [Compound 6]
≤ 3.16 nM | CC[C@@H](CNc1ccc(N(C)C)cc1)NC(=O)[C@H](CC(C)(C)F)N[C@@H](c1ccc(Br)cc1)C(F)(F)F [Compound 13]
3.16 to 31.6 nM | CC[C@@H](CNc1c(OC)cccc1OC)NC(=O)[C@H](CC(C)(C)F)N[C@@H](c1ccc(Br)cc1)C(F)(F)F [Compound 15]
≤ 3.16 nM | CC[C@@H](CNc1ccc(OCCSC)cc1OC)NC(=O)[C@H](CC(C)(C)F)N[C@@H](c1ccc(Br)cc1)C(F)(F)F [Compound 16, (2S)-2-{[(1S)-1-(4-bromophenyl)-2,2,2-trifluoroethyl]amino}-N-[(1S)-1-({[2-methoxy-4-(2-methylthioethoxy)phenyl]amino}methyl)propyl]-4-fluoro-4-methylpentanamide]
≤ 3.16 nM | CC[C@@H](CNc1ccc(N2CCSCC2)cc1OC)NC(=O)[C@H](CC(C)(C)F)N[C@@H](c1ccc(Br)cc1)C(F)(F)F [Compound 17]
3.16 to 31.6 nM | CC[C@@H](CNc1ccc(OC)nc1OC)NC(=O)[C@H](CC(C)(C)F)N[C@@H](c1ccc(Br)cc1)C(F)(F)F [Compound 19]
≤ 3.16 nM | CC[C@@H](CNc1ccc(OCC(=O)OCc2ccccc2)cc1OC)NC(=O)[C@H](CC(C)(C)F)N[C@@H](c1ccc(Br)cc1)C(F)(F)F [Compound 20, Phenylmethyl 2-{4-[((2S)-2-{(2S)-2-{[(1S)-2,2,2-trifluoro-1-(4-bromophenyl)ethyl]amino}-4-fluoro-4-methylpentanoylamino}butyl)amino]-3-methoxyphenoxy}acetate]
3.16 to 31.6 nM | CC[C@@H](CNc1ccc(OC(C)C(=O)OC)cc1OC)NC(=O)[C@H](CC(C)(C)F)N[C@@H](c1ccccc1)C(F)(F)F (stereo partly drawn) [Compound 21, Methyl 2-{4-[((2S)-2-{(2S)-2-[((1S)-2,2,2-trifluoro-1-phenylethyl)amino]-4-fluoro-4-methylpentanoylamino}butyl)amino]-3-methoxyphenoxy}propanoate]
3.16 to 31.6 nM | CC[C@@H](CNc1ccc(OCC(F)(F)C(F)F)cc1OC)NC(=O)[C@H](CC(C)(C)F)N[C@@H](c1ccccc1)C(F)(F)F [Compound 22]
≤ 3.16 nM | CC[C@@H](CNc1ccc(OC)cc1OC)NC(=O)[C@H](CC(C)C)N[C@@H](c1ccc(S(C)(=O)=O)cc1)C(F)(F)F [Compound 23]
